The results in this text go back to PMC7968329, “Triazoloacridone C-1305 impairs XBP1 splicing by acting as a potential IRE1α endoribonuclease inhibitor” (Cellular & Molecular Biology Letters, 2021).

The target of the assay is T1, IRE1α (Homo sapiens, UniProt O75460).
T1 construct: gene ERN1
Description: ADP-Glo luminescent kinase assay with purified IRE1. The class given is biochemical. On the technique in general: ADP-Glo turns the ADP formed in a reaction into a luminescent signal.

A word on the IC50: it is the concentration needed to halve the response being measured. A lower IC50 goes with higher potency.

Each structure is given as a SMILES string.

T1 sequence (O75460 19-977): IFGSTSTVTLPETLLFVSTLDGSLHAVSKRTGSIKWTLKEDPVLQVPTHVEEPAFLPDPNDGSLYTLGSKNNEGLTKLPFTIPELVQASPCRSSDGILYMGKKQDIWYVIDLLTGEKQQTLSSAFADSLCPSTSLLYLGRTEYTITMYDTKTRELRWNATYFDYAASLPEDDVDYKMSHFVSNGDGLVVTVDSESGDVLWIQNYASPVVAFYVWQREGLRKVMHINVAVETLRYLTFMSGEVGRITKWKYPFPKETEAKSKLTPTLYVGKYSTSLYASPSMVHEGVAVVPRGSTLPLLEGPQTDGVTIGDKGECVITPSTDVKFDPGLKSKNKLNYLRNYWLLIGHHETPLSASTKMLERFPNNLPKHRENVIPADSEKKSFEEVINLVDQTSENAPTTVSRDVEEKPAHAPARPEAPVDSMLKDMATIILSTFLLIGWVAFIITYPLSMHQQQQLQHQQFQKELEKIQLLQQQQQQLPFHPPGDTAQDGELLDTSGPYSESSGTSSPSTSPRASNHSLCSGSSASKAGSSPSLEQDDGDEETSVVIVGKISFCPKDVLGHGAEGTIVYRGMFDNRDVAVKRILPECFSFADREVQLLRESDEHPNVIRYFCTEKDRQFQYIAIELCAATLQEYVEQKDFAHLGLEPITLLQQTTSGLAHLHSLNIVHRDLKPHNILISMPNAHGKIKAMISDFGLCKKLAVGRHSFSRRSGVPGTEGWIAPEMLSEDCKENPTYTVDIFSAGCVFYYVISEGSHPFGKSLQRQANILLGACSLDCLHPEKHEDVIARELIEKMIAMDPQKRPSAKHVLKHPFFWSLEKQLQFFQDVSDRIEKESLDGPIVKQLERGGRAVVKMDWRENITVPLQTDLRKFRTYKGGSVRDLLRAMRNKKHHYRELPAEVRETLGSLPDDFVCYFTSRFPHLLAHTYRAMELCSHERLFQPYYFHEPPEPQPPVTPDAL

On to `Cc1cc(=O)oc2c(C=O)c(O)ccc12` [4µ8C, 7-Hydroxy-4-methyl-2-oxo-2H-chromene-8-carbaldehyde], for which the IC50 was 31.2 µM.
